Data published in patent publication US20230085307A1, “PYRIDAZINONE COMPOUND AND HERBICIDE” (NISSAN CHEMICAL CORPORATION, priority 2019, published 2023).

Test system: barnyard grass
Test: Test Example 3: herbicidal effect by foliage application, Wagner pot (Table 18, symbol H)
Format: in vivo, barnyard grass (Echinochloa crus-galli)
Settings: 320 g/ha
Procedure, shortened: (§1)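 Plants were sown in alluvial soil held under 0.1–0.5 cm standing water and grown 14 days in a greenhouse at 25–30 °C. An emulsifiable formulation, water-diluted to the set dose, was then sprayed onto the foliage, and effects were scored three weeks later using previously defined criteria.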

Row | Compound | herbicidal effect on barnyard grass (H)
1 | Cc1nn(C)c(=O)c(-c2c(-c3ccc(C#N)cc3)sc3cc(F)c(F)cc23)c1O [5-025] | 3 (Herbicidal rate of 40% or more and less than 70%)

Test system: Chinese sprangletop
Test: Test Example 3: herbicidal effect by foliage application, Wagner pot (Table 18, symbol D)
Format: in vivo, chinese sprangletop (Leptochloa chinensis)
Settings: 320 g/ha
Procedure, shortened: as §1

Row | Compound | herbicidal effect on Chinese sprangletop (D)
2 | Cc1nn(C)c(=O)c(-c2c(-c3ccc(C#N)cc3)sc3cc(F)c(F)cc23)c1O [5-025] | 4 (Herbicidal rate of 70% or more and less than 90%)

Test system: rice flat sedge
Test: Test Example 3: herbicidal effect by foliage application, Wagner pot (Table 18, symbol E)
Format: in vivo, rice flat sedge (Cyperus iria)
Settings: 320 g/ha
Procedure, shortened: as §1

Row | Compound | herbicidal effect on rice flat sedge (E)
3 | Cc1nn(C)c(=O)c(-c2c(-c3ccc(C#N)cc3)sc3cc(F)c(F)cc23)c1O [5-025] | 4 (Herbicidal rate of 70% or more and less than 90%)

Test system: southern crabgrass
Test: Test Example 4: herbicidal effect by soil treatment (Table 19, symbol F)
Format: in vivo, southern crabgrass (Digitaria ciliaris)
Settings: amount of applied herbicide 320 g/ha
Procedure, shortened: (§2)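 Soil-surface application: an emulsion agent diluted with water to the predetermined dose is sprayed uniformly over seeds lying under roughly 1.5 cm of sterilized diluvial soil. Boxes stay in a greenhouse at 25° C. to 30° C. Three weeks later, each species is graded on previously defined criteria.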

Row | Compound | F: southern crabgrass, herbicidal effect grade
4 | Cc1nn(C)c(=O)c(-c2c(-c3ccc(C#N)cc3)sc3cc(F)c(F)cc23)c1O [5-025] | 1 (Herbicidal rate of 5% or more and less than 20%)

Test system: green foxtail
Test: Test Example 4: herbicidal effect by soil treatment (Table 19, symbol G)
Format: in vivo, green foxtail (Setaria viridis)
Settings: amount of applied herbicide 320 g/ha
Procedure, shortened: as §2

Row | Compound | G: green foxtail, herbicidal effect grade
5 | Cc1nn(C)c(=O)c(-c2c(-c3ccc(C#N)cc3)sc3cc(F)c(F)cc23)c1O [5-025] | 4 (Herbicidal rate of 70% or more and less than 90%)

Test system: barnyard grass
Test: Test Example 4: herbicidal effect by soil treatment (Table 19, symbol H)
Format: in vivo, barnyard grass (Echinochloa crus-galli)
Settings: amount of applied herbicide 320 g/ha
Procedure, shortened: as §2

Row | Compound | H: barnyard grass, herbicidal effect grade
6 | Cc1nn(C)c(=O)c(-c2c(-c3ccc(C#N)cc3)sc3cc(F)c(F)cc23)c1O [5-025] | 3 (Herbicidal rate of 40% or more and less than 70%)

Test system: wild oat
Test: Test Example 4: herbicidal effect by soil treatment (Table 19, symbol I)
Format: in vivo, wild oat (Avena fatua)
Settings: amount of applied herbicide 320 g/ha
Procedure, shortened: as §2

Row | Compound | I: wild oat, herbicidal effect grade
7 | Cc1nn(C)c(=O)c(-c2c(-c3ccc(C#N)cc3)sc3cc(F)c(F)cc23)c1O [5-025] | 1 (Herbicidal rate of 5% or more and less than 20%)

Test system: blackgrass
Test: Test Example 4: herbicidal effect by soil treatment (Table 19, symbol J)
Format: in vivo, blackgrass (Alopecurus myosuroides)
Settings: amount of applied herbicide 320 g/ha
Procedure, shortened: as §2

Row | Compound | J: blackgrass, herbicidal effect grade
8 | Cc1nn(C)c(=O)c(-c2c(-c3ccc(C#N)cc3)sc3cc(F)c(F)cc23)c1O [5-025] | 0 (Herbicidal rate of 5% or less (almost no effect))

Test system: Italian ryegrass
Test: Test Example 4: herbicidal effect by soil treatment (Table 19, symbol K)
Format: in vivo, Italian ryegrass (Lolium multiflorum)
Settings: amount of applied herbicide 320 g/ha
Procedure, shortened: as §2

Row | Compound | K: Italian ryegrass, herbicidal effect grade
9 | Cc1nn(C)c(=O)c(-c2c(-c3ccc(C#N)cc3)sc3cc(F)c(F)cc23)c1O [5-025] | 1 (Herbicidal rate of 5% or more and less than 20%)

Test system: windgrass
Test: Test Example 4: herbicidal effect by soil treatment (Table 19, symbol L)
Format: in vivo, windgrass (Apera spica-venti)
Settings: amount of applied herbicide 320 g/ha
Procedure, shortened: as §2

Row | Compound | L: windgrass, herbicidal effect grade
10 | Cc1nn(C)c(=O)c(-c2c(-c3ccc(C#N)cc3)sc3cc(F)c(F)cc23)c1O [5-025] | 0 (Herbicidal rate of 5% or less (almost no effect))

Test system: velvetleaf
Test: Test Example 4: herbicidal effect by soil treatment (Table 19, symbol M)
Format: in vivo, velvetleaf (Abutilon theophrasti)
Settings: amount of applied herbicide 320 g/ha
Procedure, shortened: as §2

Row | Compound | M: velvetleaf, herbicidal effect grade
11 | Cc1nn(C)c(=O)c(-c2c(-c3ccc(C#N)cc3)sc3cc(F)c(F)cc23)c1O [5-025] | 3 (Herbicidal rate of 40% or more and less than 70%)

Test system: redroot pigweed
Test: Test Example 4: herbicidal effect by soil treatment (Table 19, symbol N)
Format: in vivo, redroot pigweed (Amaranthus retroflexus)
Settings: amount of applied herbicide 320 g/ha
Procedure, shortened: as §2

Row | Compound | N: redroot pigweed, herbicidal effect grade
12 | Cc1nn(C)c(=O)c(-c2c(-c3ccc(C#N)cc3)sc3cc(F)c(F)cc23)c1O [5-025] | 5 (Herbicidal rate of 90% or more (almost completely withered))

Test system: lambsquarters
Test: Test Example 4: herbicidal effect by soil treatment (Table 19, symbol O)
Format: in vivo, lambsquarters (Chenopodium album)
Settings: amount of applied herbicide 320 g/ha
Procedure, shortened: as §2

Row | Compound | O: lambsquarters, herbicidal effect grade
13 | Cc1nn(C)c(=O)c(-c2c(-c3ccc(C#N)cc3)sc3cc(F)c(F)cc23)c1O [5-025] | 5 (Herbicidal rate of 90% or more (almost completely withered))

Test system: chickweed
Test: Test Example 4: herbicidal effect by soil treatment (Table 19, symbol P)
Format: in vivo, common chickweed (Stellaria media)
Settings: amount of applied herbicide 320 g/ha
Procedure, shortened: as §2

Row | Compound | P: chickweed, herbicidal effect grade
14 | Cc1nn(C)c(=O)c(-c2c(-c3ccc(C#N)cc3)sc3cc(F)c(F)cc23)c1O [5-025] | 3 (Herbicidal rate of 40% or more and less than 70%)

Test system: persian speedwell
Test: Test Example 4: herbicidal effect by soil treatment (Table 19, symbol R)
Format: in vivo, Persian speedwell (Veronica persica)
Settings: amount of applied herbicide 320 g/ha
Procedure, shortened: as §2

Row | Compound | R: persian speedwell, herbicidal effect grade
15 | Cc1nn(C)c(=O)c(-c2c(-c3ccc(C#N)cc3)sc3cc(F)c(F)cc23)c1O [5-025] | 4 (Herbicidal rate of 70% or more and less than 90%)

Test system: southern crabgrass
Test: Test Example 5: herbicidal effect by foliage application, plastic box (Table 20, symbol F)
Format: in vivo, southern crabgrass (Digitaria ciliaris)
Settings: amount of applied herbicide 320 g/ha; foliage application after 14-day growth; evaluated three weeks after application
Procedure, shortened: (§3)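 Sow seeds spot-wise in sterilized diluvial soil; cover with ~1.5 cm soil. Grow 14 days in greenhouse, 25° C. to 30° C. Spray foliage with emulsion diluted to predetermined amount. Rate effect after 3 weeks.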

Row | Compound | Herbicidal effect by foliage application, F: southern crabgrass
16 | Cc1nn(C)c(=O)c(-c2c(-c3ccc(C#N)cc3)sc3cc(F)c(F)cc23)c1O [5-025] | 3 (Herbicidal rate of 40% or more and less than 70%)

Test system: green foxtail
Test: Test Example 5: herbicidal effect by foliage application, plastic box (Table 20, symbol G)
Format: in vivo, green foxtail (Setaria viridis)
Settings: amount of applied herbicide 320 g/ha; foliage application after 14-day growth; evaluated three weeks after application
Procedure, shortened: as §3

Row | Compound | Herbicidal effect by foliage application, G: green foxtail
17 | Cc1nn(C)c(=O)c(-c2c(-c3ccc(C#N)cc3)sc3cc(F)c(F)cc23)c1O [5-025] | 4 (Herbicidal rate of 70% or more and less than 90%)

Test system: barnyard grass
Test: Test Example 5: herbicidal effect by foliage application, plastic box (Table 20, symbol H)
Format: in vivo, barnyard grass (Echinochloa crus-galli)
Settings: amount of applied herbicide 320 g/ha; foliage application after 14-day growth; evaluated three weeks after application
Procedure, shortened: as §3

Row | Compound | Herbicidal effect by foliage application, H: barnyard grass
18 | Cc1nn(C)c(=O)c(-c2c(-c3ccc(C#N)cc3)sc3cc(F)c(F)cc23)c1O [5-025] | 1 (Herbicidal rate of 5% or more and less than 20%)

Test system: wild oat
Test: Test Example 5: herbicidal effect by foliage application, plastic box (Table 20, symbol I)
Format: in vivo, wild oat (Avena fatua)
Settings: amount of applied herbicide 320 g/ha; foliage application after 14-day growth; evaluated three weeks after application
Procedure, shortened: as §3

Row | Compound | Herbicidal effect by foliage application, I: wild oat
19 | Cc1nn(C)c(=O)c(-c2c(-c3ccc(C#N)cc3)sc3cc(F)c(F)cc23)c1O [5-025] | 3 (Herbicidal rate of 40% or more and less than 70%)

Test system: blackgrass
Test: Test Example 5: herbicidal effect by foliage application, plastic box (Table 20, symbol J)
Format: in vivo, blackgrass (Alopecurus myosuroides)
Settings: amount of applied herbicide 320 g/ha; foliage application after 14-day growth; evaluated three weeks after application
Procedure, shortened: as §3

Row | Compound | Herbicidal effect by foliage application, J: blackgrass
20 | Cc1nn(C)c(=O)c(-c2c(-c3ccc(C#N)cc3)sc3cc(F)c(F)cc23)c1O [5-025] | 1 (Herbicidal rate of 5% or more and less than 20%)

Test system: Italian ryegrass
Test: Test Example 5: herbicidal effect by foliage application, plastic box (Table 20, symbol K)
Format: in vivo, Italian ryegrass (Lolium multiflorum)
Settings: amount of applied herbicide 320 g/ha; foliage application after 14-day growth; evaluated three weeks after application
Procedure, shortened: as §3

Row | Compound | Herbicidal effect by foliage application, K: Italian ryegrass
21 | Cc1nn(C)c(=O)c(-c2c(-c3ccc(C#N)cc3)sc3cc(F)c(F)cc23)c1O [5-025] | 1 (Herbicidal rate of 5% or more and less than 20%)

Test system: windgrass
Test: Test Example 5: herbicidal effect by foliage application, plastic box (Table 20, symbol L)
Format: in vivo, windgrass (Apera spica-venti)
Settings: amount of applied herbicide 320 g/ha; foliage application after 14-day growth; evaluated three weeks after application
Procedure, shortened: as §3

Row | Compound | Herbicidal effect by foliage application, L: windgrass
22 | Cc1nn(C)c(=O)c(-c2c(-c3ccc(C#N)cc3)sc3cc(F)c(F)cc23)c1O [5-025] | 5 (Herbicidal rate of 90% or more (almost completely withered))

Test system: velvetleaf
Test: Test Example 5: herbicidal effect by foliage application, plastic box (Table 20, symbol M)
Format: in vivo, velvetleaf (Abutilon theophrasti)
Settings: amount of applied herbicide 320 g/ha; foliage application after 14-day growth; evaluated three weeks after application
Procedure, shortened: as §3

Row | Compound | Herbicidal effect by foliage application, M: velvetleaf
23 | Cc1nn(C)c(=O)c(-c2c(-c3ccc(C#N)cc3)sc3cc(F)c(F)cc23)c1O [5-025] | 5 (Herbicidal rate of 90% or more (almost completely withered))

Test system: redroot pigweed
Test: Test Example 5: herbicidal effect by foliage application, plastic box (Table 20, symbol N)
Format: in vivo, redroot pigweed (Amaranthus retroflexus)
Settings: amount of applied herbicide 320 g/ha; foliage application after 14-day growth; evaluated three weeks after application
Procedure, shortened: as §3

Row | Compound | Herbicidal effect by foliage application, N: redroot pigweed
24 | Cc1nn(C)c(=O)c(-c2c(-c3ccc(C#N)cc3)sc3cc(F)c(F)cc23)c1O [5-025] | 5 (Herbicidal rate of 90% or more (almost completely withered))

Test system: lambsquarters
Test: Test Example 5: herbicidal effect by foliage application, plastic box (Table 20, symbol O)
Format: in vivo, lambsquarters (Chenopodium album)
Settings: amount of applied herbicide 320 g/ha; foliage application after 14-day growth; evaluated three weeks after application
Procedure, shortened: as §3

Row | Compound | Herbicidal effect by foliage application, O: lambsquarters
25 | Cc1nn(C)c(=O)c(-c2c(-c3ccc(C#N)cc3)sc3cc(F)c(F)cc23)c1O [5-025] | 5 (Herbicidal rate of 90% or more (almost completely withered))

Test system: chickweed
Test: Test Example 5: herbicidal effect by foliage application, plastic box (Table 20, symbol P)
Format: in vivo, common chickweed (Stellaria media)
Settings: amount of applied herbicide 320 g/ha; foliage application after 14-day growth; evaluated three weeks after application
Procedure, shortened: as §3

Row | Compound | Herbicidal effect by foliage application, P: chickweed
26 | Cc1nn(C)c(=O)c(-c2c(-c3ccc(C#N)cc3)sc3cc(F)c(F)cc23)c1O [5-025] | 5 (Herbicidal rate of 90% or more (almost completely withered))

Test system: persian speedwell
Test: Test Example 5: herbicidal effect by foliage application, plastic box (Table 20, symbol R)
Format: in vivo, Persian speedwell (Veronica persica)
Settings: amount of applied herbicide 320 g/ha; foliage application after 14-day growth; evaluated three weeks after application
Procedure, shortened: as §3

Row | Compound | Herbicidal effect by foliage application, R: persian speedwell
27 | Cc1nn(C)c(=O)c(-c2c(-c3ccc(C#N)cc3)sc3cc(F)c(F)cc23)c1O [5-025] | 5 (Herbicidal rate of 90% or more (almost completely withered))
